# Source: PMC7238232, “Acamprosate Is a Substrate of the Human Organic Anion Transporter (OAT) 1 without OAT3 Inhibitory Properties: Implications for Renal Acamprosate Secretion and Drug–Drug Interactions” (Pharmaceutics, 2020)
# Read-outs that look alike come from different tables or passages of the source. Marks after values point to notes of the source that are not given here.
# Assays:
# OAT1 [1] = target: T1, OAT1 (Homo sapiens, UniProt Q4U2R8); assay: Drug-drug interaction (DDI) index calculation, OAT1; conditions: for DDI Index, PAH: acamprosate
# T1 sequence (Q4U2R8 1-563): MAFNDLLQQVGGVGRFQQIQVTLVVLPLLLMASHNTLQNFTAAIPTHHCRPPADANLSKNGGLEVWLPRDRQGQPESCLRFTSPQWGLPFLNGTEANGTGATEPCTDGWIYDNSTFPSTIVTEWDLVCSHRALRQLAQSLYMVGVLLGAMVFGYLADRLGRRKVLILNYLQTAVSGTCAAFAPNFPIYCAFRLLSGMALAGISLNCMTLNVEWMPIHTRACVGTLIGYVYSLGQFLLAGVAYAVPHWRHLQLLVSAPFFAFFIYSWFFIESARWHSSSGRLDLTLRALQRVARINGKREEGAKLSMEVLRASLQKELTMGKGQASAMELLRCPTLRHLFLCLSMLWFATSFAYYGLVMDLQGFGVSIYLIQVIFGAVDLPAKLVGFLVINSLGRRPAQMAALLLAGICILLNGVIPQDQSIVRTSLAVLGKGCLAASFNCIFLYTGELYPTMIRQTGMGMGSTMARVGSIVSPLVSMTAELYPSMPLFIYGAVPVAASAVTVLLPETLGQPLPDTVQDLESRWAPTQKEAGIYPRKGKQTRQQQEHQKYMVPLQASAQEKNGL
# From the text: (§1) Input values for Cmax,u or C0,u calculated from clinical studies are listed in Appendix B, Table A1.
# B^0,+AT/rBAT = conditions: Caco-2 cells, preliminary data; cited from earlier work
# [2] = Physicochemical properties; conditions: assay pH 7.4
# PAT1 = conditions: Caco-2 cells, preliminary data; cited from earlier work
# HEK293-Flp-In OAT3 cells = assay: CellTiter-Glo cell viability assay, OAT3 transfected cells; conditions: up to 3300 µM acamprosate; 3 h
# OATP2B1 = conditions: Caco-2 cells, preliminary data; cited from earlier work
# HEK293-Flp-In mock cells [3] = assay: Control uptake studies in HEK293-Flp-In mock cells
# Experimental: All uptake experiments were performed on 24- or 96-well plates. Before the experiment initiation, the cells were incubated with either 500 or 200 µL∙well^−1 prewarmed buffer for 10 min at 37 °C in a microplate incubator (VWR International AB, Stockholm, Sweden), without shaking. […] The experiment was stopped by adding 200 µL∙well^−1 of ice-cold buffer and subsequent rinse three times with the same amount of buffer. […] A total of 50 µL of cell lysate from each well was transferred to 96-well Luma plates bottom coated with dry scintillant. Then, 2∙20 µL of each donor and three 50 µL blank samples were applied on the same plate. The dry plates were covered with transparent seals and analyzed using a TopCount NXT Microplate Scintillation and Luminescence Counter (Perkin Elmer, Waltham, MA, USA). The remaining 20 µL cell lysate was neutralized with 20 µL 1M HCl∙well^−1, samples were mixed thoroughly and the total protein content in all the wells was measured using a BCA protein assay kit, microplate method, and a Tecan Safire II fluorometer (Tecan Austria GmbH, Grödig, Austria). […] The total protein content was measured by using a BCA protein assay kit and a FLUOStar Omega fluorescence microplate reader (BMG Labtech, Ortenberg, Germany). The protein assay for the OAT3 and mock cell lines was performed in four independent wells of each cell line, seeded and treated in the same manner as the cells used in the uptake assay. For all the OAT1, OAT3, and mock isotope uptake studies, the radiolabelled tracer accumulation (pmol) in each well was calculated by first determining the activity of the isotope (DPM∙pmol^−1) from the radioactivity (DPM) of the donor sample divided by the theoretical isotope concentration (pmol), then dividing the total radioactivity in the well (DPM) to the specific activity of the isotope (DPM∙pmol^−1).
# OAT1 [4] = target: T1, OAT1; assay: Acamprosate intracellular uptake and inhibition of uptake in HEK293-Flp-In OAT1 cells (LC/MS-MS); assay type: cell-based; parameters: expressed in transfected cells; host or cells: HEK293-Flp-In
# From the text: The obtained intracellular amounts (pmol) were normalized to the assay time (min) and cell surface area (cm^2) or protein amount (mg protein) to obtain a term hereafter referred to as uptake rate. The uptake rate of acamprosate as a function of concentration was fitted to a Michaelis–Menten type equation which includes a saturable and a non-saturable uptake component, (1) V=Vmax · [S]/Km +[S]+P · [S] where V is the substrate uptake rate; Vmax is the maximal uptake rate; P is a constant related to non-saturable apparent uptake, i.e., factors such as passive diffusion, unspecific binding and residual compound present after washing steps, and [S] is the substrate concentration (µM). […] Assuming competitive interaction, equilibrium dissociation constants, Ki, were calculated from the IC50 value for each substrate/inhibitor pair, at substrate Km, using the Cheng–Prusoff equation [24].
# HEK293-Flp-In OAT1 cells = assay: CellTiter-Glo cell viability assay, OAT1 transfected cells; conditions: up to 3300 µM acamprosate; 3 h
# OAT3 = target: T2, OAT3 (Homo sapiens, UniProt Q8TCC7); assay: Drug-drug interaction (DDI) index calculation, OAT3; conditions: oral and intravenous administration of inhibitor
# T2 sequence (Q8TCC7 1-542): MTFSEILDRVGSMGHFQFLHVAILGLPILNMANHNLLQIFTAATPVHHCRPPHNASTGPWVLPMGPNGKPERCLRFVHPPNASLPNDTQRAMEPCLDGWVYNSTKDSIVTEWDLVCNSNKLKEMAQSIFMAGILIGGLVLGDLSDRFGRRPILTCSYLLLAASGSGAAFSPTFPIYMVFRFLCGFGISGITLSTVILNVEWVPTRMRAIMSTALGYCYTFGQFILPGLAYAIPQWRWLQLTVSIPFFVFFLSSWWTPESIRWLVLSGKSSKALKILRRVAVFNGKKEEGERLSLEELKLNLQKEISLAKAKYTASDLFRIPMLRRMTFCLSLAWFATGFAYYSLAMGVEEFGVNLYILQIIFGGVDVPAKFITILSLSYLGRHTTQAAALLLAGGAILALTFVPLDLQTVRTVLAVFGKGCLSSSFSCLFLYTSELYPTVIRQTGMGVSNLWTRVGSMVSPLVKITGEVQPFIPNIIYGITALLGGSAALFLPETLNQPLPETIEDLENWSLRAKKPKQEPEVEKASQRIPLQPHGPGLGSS
# From the text: as §1
# HEK293-Flp-In mock cells [5] = assay: CellTiter-Glo cell viability assay, mock cells; conditions: up to 3300 µM acamprosate; 3 h
# [6] = no reference given; cited from earlier work
# [7] = rats, cited from earlier work
# PEPT1 = conditions: Caco-2 cells, preliminary data; cited from earlier work
# TAUT = conditions: Caco-2 cells, preliminary data; cited from earlier work
# [8] = 200 µM acamprosate, 10 min, Lab. 1
compound,measurement,setting,value
"CC(=O)NCCCS(=O)(=O)O [acamprosate, acetylhomotaurinate]","DDI Index, PAH","OAT1 [1]; IV bolus, 333 mg",0.12–0.53 *
same,"DDI Index, PAH","OAT1 [1]; IV bolus, 666 mg",0.17–0.75 *
same,"DDI Index, PAH","OAT1 [1]; IV bolus, 710 mg",0.19–0.80 *
same,"DDI Index, PAH","OAT1 [1]; IV bolus, 1420 mg",0.40–1.69 *
same,"DDI Index, PAH","OAT1 [1]; IV bolus, 2130 mg",0.62–2.68 *
same,"DDI Index, PAH","OAT1 [1]; oral solution, 333 mg",0.00–0.01
same,"DDI Index, PAH","OAT1 [1]; oral solution, 666 mg",0.00–0.01
same,"DDI Index, PAH","OAT1 [1]; oral solution, 1332 mg",0.00–0.02
same,"DDI Index, PAH","OAT1 [1]; oral solution, 2664 mg",0.01–0.03
same,"DDI Index, PAH","OAT1 [1]; oral tablet, 666 mg",0.00–0.00
same,"DDI Index, PAH","OAT1 [1]; oral tablet, 1332 mg",0.001–0.01
same,"DDI index, substrate PAH","OAT1 [1]; oral administration of inhibitor, range over doses",0.001–0.008
same,"inhibition of substrate transport via B^0,+AT/rBAT","B^0,+AT/rBAT",did not inhibit
same,ionized at the assay pH,[2],> 99%
same,inhibition of substrate transport via PAT1,PAT1,did not inhibit
same,decrease in cell viability,HEK293-Flp-In OAT3 cells,≤ 10%
same,inhibition of substrate transport via OATP2B1,OATP2B1,did not inhibit
same,effect on uptake of [3H]-E3S in mock cells,"HEK293-Flp-In mock cells [3]; 0.02 µM [3H]-E3S, 200 µM E3S, 300 µM or 0.2–1022 µM probenecid, 10,000 µM acamprosate, Lab. 2",did not affect
same,effect on uptake of [14C]-PAH in mock cells,"HEK293-Flp-In mock cells [3]; 9.5 µM [14C]-PAH, 200 µM PAH, 300 µM or 0.02–1022 µM probenecid, acamprosate, Lab. 1",did not inhibit
same,saturability of dose-dependent substrate uptake in mock cells,"HEK293-Flp-In mock cells [3]; same substrate concentrations as in transfected cells, acamprosate 0.33–3300 µM",not saturable
same,acamprosate uptake in OAT1 expressing cells compared to mock and OAT3 expressing cells,OAT1 [4]; [8],statistically significantly higher
same,acamprosate uptake rate in OAT1 cells relative to mock-transfected cells,OAT1 [4]; [8],approximately 20 fold
same,"P, non-saturable apparent uptake constant","OAT1 [4]; HEK293-Flp-In OAT1 cells, Lab. 1",0.35 ± 0.04 µL∙mg protein^−1∙min^−1
same,uptake by OAT1 as compared to OAT3,OAT1 [4]; criterion of relatively OAT1-specific substrate,at least 5 ×
same,decrease in cell viability,HEK293-Flp-In OAT1 cells,≤ 10%
same,"DDI index, substrate E3S",OAT3,"<<0.02 ^a, b"
same,decrease in cell viability,HEK293-Flp-In mock cells [5],≤ 10%
same,logP,[6],−3.57
same,pKa,[6],1.83
same,"CLR, % of the initial CLR",[7]; 9.3 mg/kg acamprosate i.v. with 33.3 mg/kg probenecid,59%
same,"CLR, % of the initial CLR",[7]; 9.3 mg/kg acamprosate i.v. with 66.6 mg/kg probenecid,45%
same,"unbound acamprosate CLR with probenecid, compared to control",[7],0.45 fold
same,increase in acamprosate AUC0∞ caused by probenecid,[7]; compared to control,2.2 fold
same,renal clearance (CLR),"[7]; intravenous 9.3 mg/kg acamprosate, without probenecid",0.35 L/h
same,inhibition of substrate transport via PEPT1,PEPT1,did not inhibit
same,inhibition of substrate transport via TAUT,TAUT,did not inhibit
